Measured values reported in patent publication US8158810B2 (Gilead Sciences, Inc., priority 2006, dated 2012).

Columns and labels:
[1] = biological target: T1, hMAO-A (Homo sapiens, UniProt P21397); experiment: MAO-A inhibition assay; assay type: biochemical; conditions: No = no inhibition; for hMAO-A inhibition up to 10 μM: printed in the IC50 hMAO-A column
T1 construct: purchased Sigma M7316
T1 sequence (P21397 1-527): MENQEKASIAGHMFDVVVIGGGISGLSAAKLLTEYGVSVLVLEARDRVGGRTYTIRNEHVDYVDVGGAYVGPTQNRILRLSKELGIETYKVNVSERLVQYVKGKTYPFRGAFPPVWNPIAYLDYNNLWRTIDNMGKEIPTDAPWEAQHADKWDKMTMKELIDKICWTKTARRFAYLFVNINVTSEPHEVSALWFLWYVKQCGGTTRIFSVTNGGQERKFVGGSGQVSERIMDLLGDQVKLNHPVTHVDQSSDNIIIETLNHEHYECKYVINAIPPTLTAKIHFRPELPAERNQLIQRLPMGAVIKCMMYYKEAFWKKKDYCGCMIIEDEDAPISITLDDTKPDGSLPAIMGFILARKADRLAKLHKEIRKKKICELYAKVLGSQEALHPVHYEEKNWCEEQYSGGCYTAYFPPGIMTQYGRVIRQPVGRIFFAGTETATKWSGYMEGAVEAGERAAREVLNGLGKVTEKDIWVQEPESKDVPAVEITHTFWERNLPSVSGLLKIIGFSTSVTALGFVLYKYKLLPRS
Method: (§1) MAO-A (Sigma M7316) and MAO-B (Sigma M7441) inhibition assays were conducted in 96-well micro-plates according to the method described by Zhou et al. [Analytical Biochemistry 253, 169-174, 1997]. […] Reactions were initiated by the addition of a pre-mixed solution of tyramine, horseradish peroxidase and Amplex Red, and were allowed to proceed at 37° C. for 30 min. Enzyme activities were determined by measuring absorbance at 570 nm (SpectralMax Plate reader), absorbance of oxidized Amplex Red generated by this horseradish peroxidase-coupled reaction. Nonspecifically formed products were determined in the presence of 2 and 10 µM clorgyline and deprenyl for MAO-A and MAO-B, respectively. IC50 values were determined by fitting concentration-inhibition data to sigmoidal dose-response curves with two-floating parameters: IC50 and Hill coefficient.

[2] = biological target: T2, hMAO-B (Homo sapiens, UniProt P27338); experiment: MAO-B inhibition assay; assay type: biochemical; conditions: No = no inhibition; for hMAO-B inhibition at 10 μM: printed in the IC50 hMAO-B column
T2 construct: purchased Sigma M7441
T2 sequence (P27338 1-520): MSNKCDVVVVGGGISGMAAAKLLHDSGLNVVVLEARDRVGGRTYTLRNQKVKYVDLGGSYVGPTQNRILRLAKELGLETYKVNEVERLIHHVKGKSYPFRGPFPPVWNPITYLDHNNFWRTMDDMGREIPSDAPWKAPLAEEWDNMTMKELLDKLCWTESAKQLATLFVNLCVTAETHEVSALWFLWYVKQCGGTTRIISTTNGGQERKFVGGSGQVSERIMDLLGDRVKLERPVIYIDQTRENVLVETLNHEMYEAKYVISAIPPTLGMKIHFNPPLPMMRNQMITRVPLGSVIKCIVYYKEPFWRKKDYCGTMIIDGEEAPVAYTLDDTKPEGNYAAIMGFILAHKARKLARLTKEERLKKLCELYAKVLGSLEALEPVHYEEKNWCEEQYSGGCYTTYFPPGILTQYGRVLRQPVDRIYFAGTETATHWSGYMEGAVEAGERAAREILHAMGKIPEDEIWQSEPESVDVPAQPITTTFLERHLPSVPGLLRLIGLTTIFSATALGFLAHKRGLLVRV
Method: as §1

Row | Structure (SMILES) | hMAO-A inhibition up to 10 μM [1] | hMAO-B inhibition up to 10 μM [2] | other results
1 | O=c1c(-c2ccc(O)cc2)coc2cc(OCc3noc(-c4ccc(F)cc4)n3)ccc12 [PT-11, 7-{[5-(4-fluorophenyl)(1,2,4-oxadiazol-3-yl)]methoxy}-3-(4-hydroxyphenyl)chromen-4-one] | No |  | hMAO-B inhibition at 10 μM ([2]; listed as PT-104, 10 µM): No
2 | O=c1c(-c2ccc(O)cc2)coc2cc(OCc3coc(-c4cccc(C(F)(F)F)c4)n3)ccc12 [PT-12, 3-(4-hydroxyphenyl)-7-({2-[3-(trifluoromethyl)phenyl](1,3-oxazol-4-yl)}methoxy)chromen-4-one] | No |  | hMAO-B inhibition at 10 μM [2]: No
3 | O=c1c(-c2ccc(O)cc2)coc2cc(OCc3coc(-c4cc(F)cc(C(F)(F)F)c4)n3)ccc12 [PT-13, 7-({2-[5-fluoro-3-(trifluoromethyl)phenyl](1,3-oxazol-4-yl)}methoxy)-3-(4-hydroxyphenyl)chromen-4-one] | No |  | hMAO-B inhibition at 10 μM [2]: No
4 | O=c1c(-c2ccc(O)cc2)coc2cc(OCc3coc(-c4cc(F)cc(F)c4)n3)ccc12 [PT-14, 7-{[2-(3,5-difluorophenyl)(1,3-oxazol-4-yl)]methoxy}-3-(4-hydroxyphenyl)chromen-4-one] | No |  | hMAO-B inhibition at 10 μM [2]: No
5 | O=c1c(-c2ccc(O)cc2)coc2cc(OCc3coc(-c4ccc(F)cc4)n3)ccc12 [PT-16, 7-{[2-(4-fluorophenyl)(1,3-oxazol-4-yl)]methoxy}-3-(4-hydroxyphenyl)chromen-4-one] | No |  | hMAO-B inhibition at 10 μM [2]: No
6 | O=c1c(-c2ccc(O)cc2)coc2cc(OCc3noc(-c4ccccc4)n3)ccc12 [PT-24, 3-(4-hydroxyphenyl)-7-[(5-phenyl(1,2,4-oxadiazol-3-yl))methoxy]chromen-4-one] |  |  | hMAO-A inhibition up to 40 μM [1]: No; hMAO-B inhibition up to 40 μM ([2]; up to 40 μM): No
7 | N#Cc1cccc(COc2ccc3c(=O)c(-c4ccc(O)cc4)coc3c2)c1 [PT-25, 3-{[3-(4-hydroxyphenyl)-4-oxochromen-7-yloxy]methyl}benzenecarbonitrile] | No | No | 
8 | COc1ccc(COc2ccc3c(=O)c(-c4ccc(O)cc4)coc3c2)cc1C(F)(F)F [PT-27, 3-(4-hydroxyphenyl)-7-{[4-methoxy-3-(trifluoromethyl)phenyl]methoxy}chromen-4-one] | No | No | 
9 | O=c1c(-c2ccc(O)cc2)coc2cc(OCc3noc(-c4cc(F)cc(C(F)(F)F)c4)n3)ccc12 [PT-29, 7-({5-[3-fluoro-5-(trifluoromethyl)phenyl](1,2,4-oxadiazol-3-yl)}methoxy)-3-(4-hydroxyphenyl)chromen-4-one] |  |  | hMAO-A inhibition up to 30 μM [1]: No; hMAO-B inhibition up to 30 μM [2]: No
10 | O=c1c(-c2ccc(O)cc2)coc2cc(OCc3noc(-c4ccc(F)c(C(F)(F)F)c4)n3)ccc12 [PT-30, 7-({5-[4-fluoro-3-(trifluoromethyl)phenyl](1,2,4-oxadiazol-3-yl)}methoxy)-3-(4-hydroxyphenyl)chromen-4-one] | No | No | 
11 | O=c1c(-c2ccc(O)cc2)coc2cc(OCc3noc(-c4cc(C(F)(F)F)ccc4C(F)(F)F)n3)ccc12 [PT-31, 7-({5-[2,5-bis(trifluoromethyl)phenyl](1,2,4-oxadiazol-3-yl)}methoxy)-3-(4-hydroxyphenyl)chromen-4-one] | No | No | 
12 | C=CCOC(=O)c1cccc(-c2nc(COc3ccc4c(=O)c(-c5ccc(O)cc5)coc4c3)no2)c1 [PT-32, prop-2-enyl 3-(3-{[3-(4-hydroxyphenyl)-4-oxochromen-7-yloxy]methyl}-1,2,4-oxadiazol-5-yl)benzoate] | No | No | 
13 | O=C(O)c1ccc(COc2ccc3c(=O)c(-c4ccc(O)cc4)coc3c2)cc1 [PT-36, 4-{[3-(4-hydroxyphenyl)-4-oxochromen-7-yloxy]methyl}benzoic acid] |  |  | hMAO-A inhibition up to 40 μM [1]: No; hMAO-B inhibition up to 30 μM [2]: No
14 | NC(=O)c1ccc(COc2ccc3c(=O)c(-c4ccc(O)cc4)coc3c2)cc1 [PT-37, 4-{[3-(4-hydroxyphenyl)-4-oxochromen-7-yloxy]methyl}benzamide] |  |  | hMAO-A inhibition up to 30 μM [1]: No; hMAO-B inhibition up to 30 μM [2]: No
15 | O=c1c(-c2ccc(O)cc2)coc2cc(OCc3noc(-c4ccc(C(F)(F)F)cc4)n3)ccc12 [PT-38, 3-(4-hydroxyphenyl)-7-({5-[4-(trifluoromethyl)phenyl](1,2,4-oxadiazol-3-yl)}methoxy)chromen-4-one] |  |  | hMAO-A inhibition up to 30 μM [1]: No; hMAO-B inhibition up to 30 μM [2]: No
16 | O=c1c(-c2ccc(O)cc2)coc2cc(OCc3noc(-c4cc(C(F)(F)F)cc(C(F)(F)F)c4)n3)ccc12 [PT-39, 7-({5-[3,5-bis(trifluoromethyl)phenyl](1,2,4-oxadiazol-3-yl)}methoxy)-3-(4-hydroxyphenyl)chromen-4-one] | No | No | 
17 | N#Cc1cccc(-c2nc(COc3ccc4c(=O)c(-c5ccc(O)cc5)coc4c3)no2)c1 [PT-40, 3-(3-{[3-(4-hydroxyphenyl)-4-oxochromen-7-yloxy]methyl}-1,2,4-oxadiazol-5-yl)benzenecarbonitrile] | No | No | 
18 | O=C(O)c1cccc(-c2nc(COc3ccc4c(=O)c(-c5ccc(O)cc5)coc4c3)no2)c1 [PT-41, 3-(3-{[3-(4-hydroxyphenyl)-4-oxochromen-7-yloxy]methyl}-1,2,4-oxadiazol-5-yl)benzoic acid] | No | No | 
19 | O=c1c(-c2ccc(O)cc2)coc2cc(OCc3noc(-c4cccc(F)c4)n3)ccc12 [PT-42, 7-{[5-(3-fluorophenyl)(1,2,4-oxadiazol-3-yl)]methoxy}-3-(4-hydroxyphenyl)chromen-4-one] | No | No | 
20 | O=c1c(-c2ccc(O)cc2)coc2cc(OCc3nc(-c4ccccc4)no3)ccc12 [PT-43, 3-(4-hydroxyphenyl)-7-[(3-phenyl(1,2,4-oxadiazol-5-yl))methoxy]chromen-4-one] |  |  | hMAO-A inhibition up to 30 μM [1]: No; hMAO-B inhibition up to 30 μM [2]: No
21 | O=c1c(-c2ccc(O)cc2)coc2cc(OCc3nc(-c4ccc(Cl)cc4)no3)ccc12 [PT-44, 3-(4-hydroxyphenyl)-7-({3-[4-chlorophenyl](1,2,4-oxadiazol-5-yl)}methoxy)chromen-4-one] |  |  | hMAO-A inhibition up to 30 μM [1]: No; hMAO-B inhibition up to 30 μM [2]: No
22 | C[C@H](NC(=O)COc1ccc2c(=O)c(-c3ccc(O)cc3)coc2c1)c1ccc(F)cc1 [PT-103, N-[(1S)-1-(4-fluorophenyl)ethyl]-2-[3-(4-hydroxyphenyl)-4-oxochromen-7-yloxy]acetamide] | 36% |  | 
23 | O=c1c(-c2ccc(O)cc2)coc2cc(OC[C@H](O)Cc3ccccc3)ccc12 [PT-109, 7-((2R)-2-hydroxy-3-phenylpropoxy)-3-(4-hydroxyphenyl)chromen-4-one] | 26% |  | 
24 | CS(=O)(=O)Nc1ccc(-c2c(O)oc3cc(OCc4cccc(C(=O)O)c4)ccc3c2=O)cc1 [PT-111, 3-[(2-hydroxy-3-{4-[(methylsulfonyl)amino]phenyl}-4-oxochromen-7-yloxy)methyl]-benzoic acid] | No |  | 
